Assay results published in patent publication US8415469B2, “Compounds and methods for kinase modulation, and indications therefor” (Plexxikon Inc., priority 2005, dated 2013).

Columns and labels:
Assay type in all cases: biochemical
MAP4K4 = MAP4K4 (Homo sapiens, UniProt O95819); assay: AlphaScreen kinase assay, MAP4K4; details: read-out: IC50, activity toward kinase MAP4K4
Procedure: AlphaScreen assays were done using compounds dissolved in DMSO to a concentration of 20 mM. The compounds were diluted accordingly to the desired final concentrations in each sample well, using 1:3 serial dilution for a total of 8 concentration points. Plates were prepared such that each kinase reaction is 20 μl in 1× kinase buffer, 5% DMSO and 10 μM ATP. After incubation of the kinase reaction for 1 hour at room temperature, 5 μl of donor beads in stop buffer (50 mM EDTA in 1× kinase buffer) was added, the sample was mixed and incubated for 20 minutes at room temperature before adding 5 μl of acceptor beads in stop buffer. The samples were incubated for 60 minutes at room temperature and the signal per well was read on AlphaQuest reader.

B-Raf V600E = biological target: T1, B-Raf V600E (Homo sapiens, UniProt P15056, V600E); assay: AlphaScreen kinase assay, B-Raf V600E; details: read-out: IC50, activity toward kinase B-Raf V600E
T1 construct: P4254. pFastBacBD-CDC37 BRAF D437-K722-X, V600E; His6 with pFastBac HT leader (TEV site) (N); made in house; host or cells: Sf9 (baculovirus; chaperone CDC37 co-expressed)
T1 sequence (P15056 with tags, fused parts or gaps V600E): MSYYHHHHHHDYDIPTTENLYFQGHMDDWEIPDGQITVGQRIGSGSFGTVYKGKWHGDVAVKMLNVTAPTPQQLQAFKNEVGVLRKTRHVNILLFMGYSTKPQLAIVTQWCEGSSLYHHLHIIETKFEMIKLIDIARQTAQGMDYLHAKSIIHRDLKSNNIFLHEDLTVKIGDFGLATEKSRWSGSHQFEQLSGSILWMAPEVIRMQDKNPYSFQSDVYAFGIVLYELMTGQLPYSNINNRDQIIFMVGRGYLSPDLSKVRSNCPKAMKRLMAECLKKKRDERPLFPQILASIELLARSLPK

FGFR1 = biological target: T2, FGFR1 (Homo sapiens, UniProt P11362, C488A/C584S); assay: AlphaScreen kinase assay, FGFR1; details: read-out: IC50, activity toward kinase FGFR
T2 construct: P1351.pET N6 BI-PTP FGFR A458-E765-X C488A, C584S; made in house; host or cells: E. coli (PTP1B co-expressed)
T2 sequence (P11362 458-765 C488A/C584S): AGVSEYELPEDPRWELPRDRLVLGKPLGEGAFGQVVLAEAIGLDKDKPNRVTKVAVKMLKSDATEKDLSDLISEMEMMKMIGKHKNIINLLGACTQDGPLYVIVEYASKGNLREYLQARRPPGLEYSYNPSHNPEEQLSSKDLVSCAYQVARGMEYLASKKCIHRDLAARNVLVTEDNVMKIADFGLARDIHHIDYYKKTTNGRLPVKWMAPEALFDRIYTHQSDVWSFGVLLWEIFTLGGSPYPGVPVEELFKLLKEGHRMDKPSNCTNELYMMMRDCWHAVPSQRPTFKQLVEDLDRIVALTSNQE

Flt1 = biological target: T3, Flt1 (Homo sapiens, UniProt P17948); assay: AlphaScreen kinase assay, Flt1; details: read-out: IC50, activity toward kinase Flt1
T3 construct: P1826.pETN6 BI-PTP FLT1 M799-D1165-X WT; His6 (N); made in house; host or cells: E. coli (PTP1B co-expressed)
T3 sequence (P17948 with tags, fused parts or gaps): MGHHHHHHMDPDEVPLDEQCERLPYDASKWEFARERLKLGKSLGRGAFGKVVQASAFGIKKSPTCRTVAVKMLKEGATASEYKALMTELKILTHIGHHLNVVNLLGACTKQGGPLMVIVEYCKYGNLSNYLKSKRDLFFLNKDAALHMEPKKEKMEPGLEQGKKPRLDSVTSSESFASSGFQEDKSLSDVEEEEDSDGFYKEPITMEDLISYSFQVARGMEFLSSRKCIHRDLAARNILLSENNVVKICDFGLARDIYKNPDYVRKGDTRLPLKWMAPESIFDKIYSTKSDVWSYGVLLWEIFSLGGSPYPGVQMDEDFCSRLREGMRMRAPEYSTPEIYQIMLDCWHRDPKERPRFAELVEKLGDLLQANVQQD

c-Raf-1 = biological target: T4, c-Raf-1 (Homo sapiens, UniProt P04049); assay: AlphaScreen kinase assay, c-Raf-1; details: read-out: IC50, activity toward kinase c-Raf-1
T4 construct: purchased Upstate Biotechnology
T4 sequence (P04049 whole entry): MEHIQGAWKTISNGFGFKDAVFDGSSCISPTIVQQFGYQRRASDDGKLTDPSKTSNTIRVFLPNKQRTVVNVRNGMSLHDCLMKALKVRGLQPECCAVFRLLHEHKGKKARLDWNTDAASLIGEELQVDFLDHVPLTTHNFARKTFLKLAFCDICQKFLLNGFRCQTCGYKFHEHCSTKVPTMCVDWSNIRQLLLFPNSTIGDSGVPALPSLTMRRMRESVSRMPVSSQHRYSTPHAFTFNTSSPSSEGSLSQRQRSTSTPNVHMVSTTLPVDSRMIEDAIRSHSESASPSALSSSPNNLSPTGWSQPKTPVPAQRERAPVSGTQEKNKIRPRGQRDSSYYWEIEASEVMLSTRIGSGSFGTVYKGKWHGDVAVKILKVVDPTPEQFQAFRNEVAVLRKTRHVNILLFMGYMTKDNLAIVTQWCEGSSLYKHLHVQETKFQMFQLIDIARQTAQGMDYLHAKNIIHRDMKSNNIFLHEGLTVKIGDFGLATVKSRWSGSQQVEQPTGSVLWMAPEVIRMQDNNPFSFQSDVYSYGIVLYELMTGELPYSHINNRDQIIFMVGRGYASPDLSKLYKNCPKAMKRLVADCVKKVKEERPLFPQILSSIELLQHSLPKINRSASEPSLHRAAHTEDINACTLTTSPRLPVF

Kit = biological target: T5, Kit (Homo sapiens, UniProt P10721); assay: AlphaScreen kinase assay, Kit; details: read-out: IC50, activity toward kinase Kit
T5 construct: P1332.N6 BI PTP KIT M552-K948-X COD; His6 (N); made in house; host or cells: E. coli (PTP1B co-expressed)
T5 sequence (P10721 with tags, fused parts or gaps): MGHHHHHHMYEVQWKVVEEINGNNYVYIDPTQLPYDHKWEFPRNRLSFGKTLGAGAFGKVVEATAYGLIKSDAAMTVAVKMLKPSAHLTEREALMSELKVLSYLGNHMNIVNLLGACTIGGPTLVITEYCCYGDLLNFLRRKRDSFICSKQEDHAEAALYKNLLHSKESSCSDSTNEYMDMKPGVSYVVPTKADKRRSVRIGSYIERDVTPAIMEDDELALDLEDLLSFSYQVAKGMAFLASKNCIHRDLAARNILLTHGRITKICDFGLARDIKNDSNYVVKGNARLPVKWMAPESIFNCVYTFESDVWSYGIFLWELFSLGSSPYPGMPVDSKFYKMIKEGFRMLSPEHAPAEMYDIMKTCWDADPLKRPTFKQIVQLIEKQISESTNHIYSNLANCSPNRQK

Fms = biological target: T6, Fms (Homo sapiens, UniProt P07333); assay: AlphaScreen kinase assay, Fms; details: read-out: IC50, activity toward kinase Fms
T6 construct: purchased Upstate Biotechnology
T6 sequence (P07333 20-972): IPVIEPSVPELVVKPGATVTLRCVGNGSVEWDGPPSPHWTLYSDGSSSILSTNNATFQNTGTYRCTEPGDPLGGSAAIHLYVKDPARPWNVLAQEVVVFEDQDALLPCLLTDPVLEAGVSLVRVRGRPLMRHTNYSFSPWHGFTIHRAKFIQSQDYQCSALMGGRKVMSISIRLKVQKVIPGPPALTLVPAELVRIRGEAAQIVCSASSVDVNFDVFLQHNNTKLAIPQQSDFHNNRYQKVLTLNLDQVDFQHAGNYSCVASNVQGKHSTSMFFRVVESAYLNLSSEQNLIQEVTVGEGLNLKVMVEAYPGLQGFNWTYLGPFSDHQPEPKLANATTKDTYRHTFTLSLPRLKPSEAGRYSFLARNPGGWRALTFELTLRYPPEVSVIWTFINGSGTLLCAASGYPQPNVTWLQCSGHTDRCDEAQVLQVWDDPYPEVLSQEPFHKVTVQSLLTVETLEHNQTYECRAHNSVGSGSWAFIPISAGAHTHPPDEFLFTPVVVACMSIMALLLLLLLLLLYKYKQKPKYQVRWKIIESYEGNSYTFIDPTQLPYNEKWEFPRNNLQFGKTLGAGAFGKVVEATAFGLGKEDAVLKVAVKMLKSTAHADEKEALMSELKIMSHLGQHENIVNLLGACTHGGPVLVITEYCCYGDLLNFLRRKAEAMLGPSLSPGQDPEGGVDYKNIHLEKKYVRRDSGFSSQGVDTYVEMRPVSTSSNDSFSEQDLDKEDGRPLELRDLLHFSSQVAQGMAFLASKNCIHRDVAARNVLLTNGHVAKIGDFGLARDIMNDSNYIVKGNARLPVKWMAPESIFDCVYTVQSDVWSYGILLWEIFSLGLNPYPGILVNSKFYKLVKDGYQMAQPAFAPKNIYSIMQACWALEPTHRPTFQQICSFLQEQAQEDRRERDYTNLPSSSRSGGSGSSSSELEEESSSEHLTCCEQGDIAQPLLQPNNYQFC

B-Raf = biological target: T7, B-Raf (Homo sapiens, UniProt P15056); assay: AlphaScreen kinase assay, B-Raf; details: read-out: IC50, activity toward kinase B-Raf
T7 construct: purchased Upstate Biotechnology
T7 sequence (P15056 whole entry): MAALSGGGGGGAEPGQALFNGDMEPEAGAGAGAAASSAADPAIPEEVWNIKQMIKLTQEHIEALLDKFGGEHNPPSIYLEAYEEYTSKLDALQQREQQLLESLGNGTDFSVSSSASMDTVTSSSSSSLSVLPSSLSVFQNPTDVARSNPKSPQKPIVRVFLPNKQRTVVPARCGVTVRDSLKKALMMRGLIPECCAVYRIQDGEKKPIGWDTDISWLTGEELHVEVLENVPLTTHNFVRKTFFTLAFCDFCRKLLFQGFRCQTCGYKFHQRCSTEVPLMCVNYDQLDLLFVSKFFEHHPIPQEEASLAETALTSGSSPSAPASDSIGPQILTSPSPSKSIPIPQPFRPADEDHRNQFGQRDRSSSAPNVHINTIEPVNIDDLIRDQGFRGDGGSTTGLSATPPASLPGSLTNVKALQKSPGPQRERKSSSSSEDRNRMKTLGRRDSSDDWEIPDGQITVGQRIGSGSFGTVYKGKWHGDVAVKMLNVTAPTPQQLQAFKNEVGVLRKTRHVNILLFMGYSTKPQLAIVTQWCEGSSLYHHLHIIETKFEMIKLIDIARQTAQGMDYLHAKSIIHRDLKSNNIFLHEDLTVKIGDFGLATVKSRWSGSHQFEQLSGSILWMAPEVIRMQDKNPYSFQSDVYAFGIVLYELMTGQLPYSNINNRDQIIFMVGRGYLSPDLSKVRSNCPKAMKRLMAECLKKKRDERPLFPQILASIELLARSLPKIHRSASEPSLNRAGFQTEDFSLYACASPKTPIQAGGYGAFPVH

Ret = biological target: T8, Ret (Homo sapiens, UniProt P07949); assay: AlphaScreen kinase assay, Ret; details: read-out: IC50, activity toward kinase Ret
T8 construct: P1378.pET-SF BI-PTP RET H661-R1012 HIS; made in house
T8 sequence (P07949 with tags, fused parts or gaps): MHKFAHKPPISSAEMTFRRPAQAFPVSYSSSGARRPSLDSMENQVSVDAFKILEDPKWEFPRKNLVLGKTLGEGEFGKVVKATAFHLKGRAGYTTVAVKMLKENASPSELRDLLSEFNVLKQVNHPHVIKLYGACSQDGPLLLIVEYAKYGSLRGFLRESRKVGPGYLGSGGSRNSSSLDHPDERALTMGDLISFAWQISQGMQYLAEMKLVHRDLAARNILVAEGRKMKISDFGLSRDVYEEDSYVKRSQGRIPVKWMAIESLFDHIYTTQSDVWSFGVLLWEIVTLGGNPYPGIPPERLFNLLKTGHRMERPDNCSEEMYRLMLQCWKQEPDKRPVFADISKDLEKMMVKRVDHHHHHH

Fak = biological target: T9, Fak (Homo sapiens, UniProt Q05397); assay: AlphaScreen kinase assay, Fak; details: read-out: IC50, activity toward kinase Fak
T9 construct: P1358.pFastBacHtb FAK S411-Q686-X; His6 with pFastBacHTb leader (TEV site) (N); made in house; host or cells: Sf9 (baculovirus)
T9 sequence (Q05397 411-686): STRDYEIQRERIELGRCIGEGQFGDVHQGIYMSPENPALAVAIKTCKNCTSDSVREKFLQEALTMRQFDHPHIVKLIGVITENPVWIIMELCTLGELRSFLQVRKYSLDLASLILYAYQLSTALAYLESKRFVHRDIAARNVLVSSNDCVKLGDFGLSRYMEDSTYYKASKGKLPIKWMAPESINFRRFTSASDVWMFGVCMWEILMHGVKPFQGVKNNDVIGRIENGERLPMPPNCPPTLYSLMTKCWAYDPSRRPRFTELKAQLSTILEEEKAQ

Yes = biological target: T10, Yes (Homo sapiens, UniProt P07947); assay: Z'-Lyte FRET kinase assay (Invitrogen), Yes; details: read-out: IC50, activity toward kinase Yes
T10 construct: purchased Invitrogen (Carlsbad, Calif.), screening service
Text: The effect of potential modulators of kinase activity can be measured in a variety of different assays known in the art. For example, direct radiometric, indirect FRET or AlphaScreen assays may be used to assess the level of phosphorylation of a substrate in the presence of test compounds in order to determine the inhibitory affect of the compound on the kinase. Invitrogen (Carlsbad, Calif.) uses a FRET based assay for Btk, EGFR, EphB2, Flt3, lrak4, Kdr, MAP2K1, MAPKAPK2, PDGFRB, PKC theta, Stk6 and Yes. For these assays, compounds of the invention were screened by Invitrogen using Z′-Lyte™ kinase assay.
Briefly, the Invitrogen kinase assay involves use of a specific peptide substrate optimized for each kinase, containing a fluorophore at each end that make up the FRET pair. The peptide sensitivity to proteolytic cleavage depends on phosphorylation of the peptide. Non-phosphorylated peptide is cleaved by a protease while peptide phosphorylated by the kinase is not cleaved. Cleavage of the peptide disrupts the FRET between the donor (coumarin) and acceptor (fluorescein) fluorophores, resulting in an increase in the ratio of donor emission to acceptor emission. The emission ratio of coumarin to fluorescein is used to assess the reaction progress. The extent of phosphorylation is determined from the emission ratio, which is low when the kinase is active (phosphorylated peptide is not cleaved, FRET pair connected) or higher for inhibited kinase (non-phosphorylated peptide is cleaved, FRET pair separated). Thus, the assay involves a kinase reaction in the presence of varying concentrations of a given compound, a development reaction with site specific protease, and detection of the fluorescent emission ratio of coumarin and fluorscein. […] Reaction conditions for each kinase are determined to provide optimal reaction times, incubation temperature, kinase and ATP concentrations. Test samples are made up in 1× kinase buffer (50 mM HEPES pH 7.5, 50 mM MgCl2, 5 mM EGTA, 0.05% BRIJ-35) and compound at desired concentration prepared in DMSO such that the final DMSO is 1%. […] Typically, assay plates are prepared to 10 μl final volume per sample, adding 2.5 μl of compound at 4× the desired concentration in 4% DMSO (serial dilution of compound provides concentration curve), 5 μl of the desired kinase mixed with Z′-LYTE™ peptide substrate (2× in 2× kinase buffer, final peptide at 2 μM), and 2.5 μl of 4×ATP solution. All kinase except for MAP2K1 were at 10 μM ATP in the kinase reaction, while MAP2K1 was at 100 μM. Samples are mixed and the kinase reaction is incubated 1 hour at room temperature, after which 5 μl of development solution is added and mixed. After incubation for another 1 hour at room temperature, 5 μl of stop reagent is added to each sample and mixed. The fluorescence signals are measured to determine the emission ratio.

Zap70 = biological target: T11, Zap70 (Homo sapiens, UniProt P43403); assay: AlphaScreen kinase assay, Zap70; details: read-out: IC50, activity toward kinase Zap70
T11 construct: P1868.pFastBac1 ZAP70 D327-G606 HIS, WT; His7 (HHHHHHH) (C); made in house
T11 sequence (P43403 with tags, fused parts or gaps): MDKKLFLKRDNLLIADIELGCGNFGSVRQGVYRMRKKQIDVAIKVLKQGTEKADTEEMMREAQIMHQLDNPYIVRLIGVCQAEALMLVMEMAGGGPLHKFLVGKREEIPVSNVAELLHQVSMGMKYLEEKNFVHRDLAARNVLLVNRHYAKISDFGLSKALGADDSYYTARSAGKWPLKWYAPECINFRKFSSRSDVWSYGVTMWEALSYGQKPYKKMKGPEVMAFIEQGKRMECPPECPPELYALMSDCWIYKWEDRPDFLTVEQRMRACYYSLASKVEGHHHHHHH
Text: AlphaScreen assay was used to screen additional kinases. The assay is similarly dependent on the phosphorylation of a peptide substrate. In this assay, an antibody that recognizes phosphorylated substrate is bound to an acceptor bead. The peptide substrate is attached to biotin, which binds to a donor head that contains streptavidin. Thus phosphorylated substrate is bound by antibody and streptavidin, bringing the donor and acceptor heads into close proximity when kinase is not inhibited. The donor produces singlet oxygen which results in emission from the acceptor when they are in close proximity. Conversely, when kinase is inhibited, the donor and acceptor beads are not associated and the emission from the acceptor is reduced.
AlphaScreen assays were done using compounds dissolved in DMSO to a concentration of 20 mM. The compounds were diluted accordingly to the desired final concentrations in each sample well, using 1:3 serial dilution for a total of 8 concentration points.

MAP4K4, sequence (O95819 whole entry): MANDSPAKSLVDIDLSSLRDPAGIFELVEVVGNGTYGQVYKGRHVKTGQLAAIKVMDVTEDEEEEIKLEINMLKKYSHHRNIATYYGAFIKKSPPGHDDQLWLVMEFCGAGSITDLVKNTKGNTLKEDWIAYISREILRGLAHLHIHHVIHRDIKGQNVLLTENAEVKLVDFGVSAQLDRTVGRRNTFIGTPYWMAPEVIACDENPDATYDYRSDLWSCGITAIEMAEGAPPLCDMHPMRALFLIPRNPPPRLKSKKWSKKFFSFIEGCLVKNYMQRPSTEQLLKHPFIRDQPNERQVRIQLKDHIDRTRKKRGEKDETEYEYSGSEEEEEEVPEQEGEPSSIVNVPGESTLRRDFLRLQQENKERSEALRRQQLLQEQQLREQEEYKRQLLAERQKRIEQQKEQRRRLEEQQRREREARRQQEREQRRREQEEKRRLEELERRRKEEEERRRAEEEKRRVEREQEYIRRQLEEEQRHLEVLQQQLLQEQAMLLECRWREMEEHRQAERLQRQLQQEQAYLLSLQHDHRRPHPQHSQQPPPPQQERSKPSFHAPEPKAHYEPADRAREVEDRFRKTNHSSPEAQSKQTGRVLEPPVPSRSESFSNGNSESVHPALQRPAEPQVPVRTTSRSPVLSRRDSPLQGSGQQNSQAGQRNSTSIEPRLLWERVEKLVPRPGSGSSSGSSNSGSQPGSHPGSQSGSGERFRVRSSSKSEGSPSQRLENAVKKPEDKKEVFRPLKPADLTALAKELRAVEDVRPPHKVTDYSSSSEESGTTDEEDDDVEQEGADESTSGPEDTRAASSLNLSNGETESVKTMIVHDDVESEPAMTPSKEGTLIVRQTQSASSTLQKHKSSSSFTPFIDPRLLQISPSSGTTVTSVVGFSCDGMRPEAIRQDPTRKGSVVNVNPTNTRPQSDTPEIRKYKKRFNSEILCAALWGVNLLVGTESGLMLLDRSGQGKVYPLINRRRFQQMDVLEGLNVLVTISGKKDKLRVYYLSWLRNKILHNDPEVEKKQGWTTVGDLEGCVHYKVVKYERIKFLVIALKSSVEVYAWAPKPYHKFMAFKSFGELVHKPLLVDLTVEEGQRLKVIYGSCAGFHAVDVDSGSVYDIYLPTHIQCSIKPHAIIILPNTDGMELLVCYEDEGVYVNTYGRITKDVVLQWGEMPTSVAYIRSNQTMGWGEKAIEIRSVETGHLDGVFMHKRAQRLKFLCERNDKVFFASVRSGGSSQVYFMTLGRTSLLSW

COc1ccc(-c2c(C)[nH]c3ncccc23)cc1OC [Compound P-0862]
IC50 (MAP4K4): ≤ 10 µM

O=C(O)/C=C/c1cccc(-c2cnc3[nH]cc(C(=O)c4cccc(OC(F)F)c4)c3c2)c1 [Compound P-1418, (E)-3-{3-[3-(3-Difluoromethoxy-benzoyl)-1H-pyrrolo[2,3-b]pyridin-5-yl]-phenyl}-acrylic acid]
IC50 (B-Raf V600E): ≤ 10 µM | IC50 (FGFR1): ≤ 10 µM | IC50 (Flt1): ≤ 10 µM | IC50 (MAP4K4): ≤ 10 µM

NC(=O)c1ccc(-c2c(CN3CCOCC3)[nH]c3ncccc23)cc1 [Compound P-0695]
IC50 (MAP4K4): ≤ 10 µM

Cc1cc(C(=O)c2c[nH]c3ncccc23)n(C)n1 [Compound P-0357]
IC50 (MAP4K4): ≤ 10 µM

COc1cccc(S(=O)(=O)Nc2ccc(F)c(C(=O)c3c[nH]c4ncccc34)c2F)c1 [Compound P-0971, N-[2,4-difluoro-3-(1H-pyrrolo[2,3-b]pyridine-3-carbonyl)phenyl]-3-methoxy-benzenesulfonamide]
IC50 (B-Raf V600E): ≤ 10 µM | IC50 (c-Raf-1): ≤ 10 µM | IC50 (MAP4K4): ≤ 10 µM

O=C(c1ccccc1)c1c[nH]c2ncccc12 [Compound P-0402]
IC50 (Kit): ≤ 10 µM | IC50 (MAP4K4): ≤ 10 µM

Cc1[nH]c2ncccc2c1-c1ccncc1 [Compound P-0537]
IC50 (MAP4K4): ≤ 10 µM

O=C(c1cccc(OC(F)F)c1)c1c[nH]c2ncc(-c3cccnc3)cc12 [Compound P-1415, (3-Difluoromethoxy-phenyl)-(5-pyridin-3-yl-1H-pyrrolo[2,3-b]pyridin-3-yl)-methanone]
IC50 (B-Raf V600E): ≤ 10 µM | IC50 (FGFR1): ≤ 10 µM | IC50 (Flt1): ≤ 10 µM | IC50 (Fms): ≤ 10 µM | IC50 (Kit): ≤ 10 µM | IC50 (MAP4K4): ≤ 10 µM

CS(=O)(=O)Nc1cccc(-c2cnc3[nH]cc(C(=O)c4cc(Cl)cc(Cl)c4)c3c2)c1 [Compound P-1429, N-{3-[3-(3,5-Dichloro-benzoyl)-1H-pyrrolo[2,3-b]pyridin-5-yl]-phenyl}-methanesulfonamide]
IC50 (B-Raf): ≤ 10 µM | IC50 (B-Raf V600E): ≤ 10 µM | IC50 (FGFR1): ≤ 10 µM | IC50 (Flt1): ≤ 10 µM | IC50 (Fms): ≤ 10 µM | IC50 (Kit): ≤ 10 µM | IC50 (MAP4K4): ≤ 10 µM

COc1cc(OC)cc(C(=O)c2c[nH]c3ncc(-c4ccccc4)cc23)c1 [Compound P-1406, (3,5-Dimethoxy-phenyl)-(5-phenyl-1H-pyrrolo[2.3 b]pyridin-3-yl)-methanone]
IC50 (FGFR1): ≤ 10 µM | IC50 (Flt1): ≤ 10 µM | IC50 (Fms): ≤ 10 µM | IC50 (Kit): ≤ 10 µM | IC50 (MAP4K4): ≤ 10 µM

O=C(c1cccc(F)c1)c1c[nH]c2ncccc12 [Compound P-0367]
IC50 (Kit): ≤ 10 µM | IC50 (Ret): ≤ 10 µM | IC50 (MAP4K4): ≤ 10 µM

O=C(c1cccnc1)c1c[nH]c2ncccc12 [Compound P-0518]
IC50 (MAP4K4): ≤ 10 µM

Clc1cccc(-c2c[nH]c3ncccc23)c1 [Compound P-0449]
IC50 (MAP4K4): ≤ 10 µM

O=C(O)c1ccc(F)c(C(=O)c2c[nH]c3ncc(-c4cccnc4)cc23)c1F [Compound P-1017]
IC50 (c-Raf-1): ≤ 10 µM | IC50 (FGFR1): ≤ 10 µM | IC50 (MAP4K4): ≤ 10 µM

Cc1[nH]c2ncccc2c1-c1ccccc1 [Compound P-0488]
IC50 (MAP4K4): ≤ 10 µM

COc1ccc(-c2c[nH]c3ncccc23)c(OC)c1 [Compound P-0477]
IC50 (Flt1): ≤ 10 µM | IC50 (MAP4K4): ≤ 10 µM

c1ccc(Cc2c[nH]c3ncccc23)cc1 [Compound P-0256]
IC50 (MAP4K4): ≤ 10 µM

c1ccc(Oc2ccc(Cc3c[nH]c4ncccc34)cc2)cc1 [Compound P-0310]
IC50 (B-Raf): ≤ 10 µM | IC50 (Fak): ≤ 10 µM | IC50 (Yes): ≤ 10 µM | IC50 (Zap70): ≤ 10 µM

CCOc1ccccc1-c1c[nH]c2ncccc12 [Compound P-0527]
IC50 (MAP4K4): ≤ 10 µM

O=C(c1cc(Cl)cc(Cl)c1)c1c[nH]c2ncc(-c3cccnc3)cc12 [Compound P-1414, (3,5-Dichloro-phenyl)-(5-pyridin-3-yl-1H-pyrrolo[2,3-b]pyridin-3-yl)-methanone]
IC50 (B-Raf V600E): ≤ 10 µM | IC50 (Kit): ≤ 10 µM | IC50 (MAP4K4): ≤ 10 µM

Cc1[nH]c2ncccc2c1-c1ccc(-c2ccccc2)cc1 [Compound P-0601]
IC50 (MAP4K4): ≤ 10 µM

c1cnc2ccc(Nc3ccnc4[nH]ccc34)cc2c1 [Compound P-1042]
IC50 (MAP4K4): ≤ 10 µM

Fc1ccc(Cc2c[nH]c3ncccc23)cc1 [Compound P-0220]
IC50 (FGFR1): ≤ 10 µM | IC50 (MAP4K4): ≤ 10 µM
